The values that follow come from US11142550B2, “Split inteins with exceptional splicing activity” (THE TRUSTEES OF PRINCETON UNIVERSITY, priority 2016, dated 2021).

“Also recorded” adds a separate entry of the source.

Series [1] has as its system split intein constructs with short native extein sequences. Nature of the series: in vitro protein trans-splicing (PTS) assay, RP-HPLC / ESI-MS kinetics. Type of series: biochemical. The text has this:
Thus, attention was focused on ‘second shell’ residues, those directly adjacent to the active site. To simplify this analysis, a batch mutagenesis strategy was employed in conjunction with a previously reported in vitro PTS assay.^5 This assay uses split intein constructs with short native extein sequences and allows the rates of branched intermediate formation (k1,k2) and its resolution to final splice products (k3) to be determined using a three state kinetic model.
Splicing reactions were carried out as adapted from a previously described protocol. Briefly, N- and C-inteins (15 μM Int^N, 10 μM Int^C) were individually preincubated in splicing buffer (100 mM sodium phosphates, 150 mM NaCl, 1 mM EDTA, pH 7.2) with 2 mM TCEP for 15 minutes. All splicing reactions were carried out at 30° C. unless otherwise indicated. Splicing reactions comparing the tolerance of Npu and Cfa to chaotropic agents were carried out with the indicated concentration of either Urea or guanidine hydrochloride. Splicing was initiated by mixing equal volumes of N- and C-inteins with aliquots removed at the indicated times and quenched by the addition of 8M guanidine hydrochloride, 4% TFA (3:1 v/v). For all splicing reactions containing either Npu^C-CFN or Cfa^C-CFN, reaction progress was monitored by RP-HPLC. […] (15 minute preincubation) were both observed to be inefficient, reaching ˜50% completion. This is likely due to aggregation (and inactivation) of the N-intein. Note, shorter preincubations of Cfa at 80° C. led to more efficient splicing.
Kinetic analysis was carried out as previously described.^1 Briefly, five species (1-5) are separated by RP-HPLC, and peak areas are determined. For ESI-MS, peak areas are calculated for species 1-4. Each individual peak was normalized against the total area of all peaks combined and reaction progress curves were plotted (n=3). The data were then fit in ProFit to the analytical solution to the coupled differential rate equation for the three state kinetic splicing model. Because the starting material cannot be separated from the linear thioester using this assay, the three state kinetic model collapses the binding step and the first two steps of the splicing reaction into one equilibrium. Each splicing reaction was carried out in triplicate with each replicate analyzed separately. The mean and standard deviation for all values (n=3) are reported.
All splicing reactions comparing Npu and Cfa were separated by RP-HPLC with peak areas once again calculated using the manufacturer's software. For these reactions, peak areas for the starting material and branched intermediate (species 1 and 2) and product (species 3, 4, 5) were calculated. The data was then fit to the first order rate equation using the GraphPad Prism software. [P](t)=[P]max·(1−e^−kt)
Where [P] is the normalized intensity of product, [P]max is this value at t=∞ (the reaction plateau), and k is the rate constant (s^−1). The mean and standard deviation (n=3) are reported.

A short description of series [2]: refolding of N-inteins by stepwise dialysis. Type of series: physicochemical. Particulars: stepwise dialysis into lysis buffer, 4° C. As for the experimental part:
The N-inteins were refolded by stepwise dialysis into lysis buffer with 0.5 mM DTT at 4° C. This refolded protein was then treated with 10 mM TCEP and Ulp1 protease (overnight, RT) to cleave the His6-SUMO expression tag. The solution was then mixed with 4 mL Ni-NTA resin and incubated for 30 minutes at 4° C. The slurry was applied to a fritted column and the flow through was collected together with a 3 CV wash with lysis buffer. The protein was then treated with 10 mM TCEP, concentrated to 10 mL, and further purified by size exclusion chromatography using an S75 16/60 gel filtration column employing degassed splicing buffer (100 mM sodium phosphate, 150 mM NaCl, 1 mM EDTA, pH 7.2) as the mobile phase. Fractions were analyzed by SDS-PAGE, analytical RP-HPLC, and ESI-MS. Pure protein was stored by flash-freezing in liquid N2 following the addition of glycerol (20% v/v).

Series [3] concerns split aminoglycoside phosphotransferase (KanR) in E. coli. The series can be described thus: protein splicing coupled kanamycin resistance (Kan^R) assay. Type of series: cell-based. Particulars: +2 position of the C-extein. As for the experimental part:
The protein splicing coupled kanamycin resistance (Kan^R) assay was carried out as previously described.^2,9 Briefly, a plasmid coding for a fragmented aminoglycoside phosphotransferase fused to a split intein (Cfa) with either F, G, R, or E present at the +2 position of the C-extein (plasmids 22-25) was transformed into DH5α competent cells and grown in starter cultures overnight (LB Broth, 100 μg/mL ampicillin, 18 hrs). These cultures were then diluted twenty-fold into a 96 well plate, and E. coli growth was measured at various concentrations of kanamycin (2.5, 10, 25, 50, 100, 250, 1000 μg/mL kanamycin with 100 μg/mL ampicillin). The cell optical density at 650 nm (OD650) at the 24-hour end point was fit to a dose response curve with variable slope.
Where ODmin was fixed to background absorbance at 650 nm. Each assay was carried out in triplicate, fit separately, and IC50 values are reported as the mean and standard deviation of IC50 for these three separate measurements.
The kanamycin resistance protein, KanR, is split and fused to N- and C-intein fragments (Cfa^N and Cfa^C). The +2 C-extein residue (red X) is varied in the system. In Panel B, IC50 values for kanamycin resistance of the CfaEKD (WT) and CfaGEP (GEP) inteins with indicated +2 C-extein residue are shown (error=standard error (n=3)).

Another series concerns Cfa^C-CFN. The series can be described thus: protein trans-splicing of extracted inclusion body under denaturing conditions. Type of series: biochemical. Particulars: extracted from inclusion bodies with 6M urea. As for the experimental part: E. coli inclusion bodies containing His6-Sumo-Cfa^N expression (plasmid 20) were resuspended and extracted overnight at 4° C. in lysis buffer containing 6M urea. Following centrifugation (35,000 rcf, 30 min), the supernatant was removed and the protein enriched by Ni-NTA under denaturing conditions (as described above). However, instead of refolding the protein, trans-splicing was directly initiated by the addition of Cfa^C-CFN (10 μM Cfa^C, 2 mM TCEP, 2 mM EDTA, 2 hrs, RT). Reaction progress was monitored by SDS-PAGE.

The test system of series [4] is split intein constructs with short native extein sequences. Particulars: 30° C.; cited from earlier work.

Turning to “A136S: A136S point mutant on the Ssp^C intein; plasmid 19, SEQ ID NO: 379 [Compound A136S]”, in series [1] (mutation on Ssp^C), the “effect of mutation on branch formation” value is “no impact” and the “effect of mutation on rate of branch resolution” value is recorded as “two fold”.
On to “Batch 3: Ssp^N batch mutant (S23E, E24K, E25R, N27E); plasmid 13, SEQ ID NO: 373”, for which the “precipitation during the refolding step” value in series [2] was “significant protein precipitation was observed”. This substance yielded a splicing completion in series [1] (30° C.) of about 50%.
In the case of “Cfa: consensus fast DnaE split intein; Cfa^N SEQ ID NO: 2, Cfa^C SEQ ID NO: 3”, the “C-extein +2 residue preference” value in series [3] is reported as “retains the preference for a bulky hydrophobic residue”. Also, the “splicing rate constant k (residual activity)” value in series [1] (4M GuHCl) was 7e-05 s⁻¹. The splicing in urea result in series [1] (8M urea) was “largely unaffected”. For the same substance, in series [1] (30° C., relative to Npu), the “branch formation rate, increase over Npu” value was 3 fold; the “branch resolution rate, increase over Npu” value is 2 fold; the “splices faster than Npu” value was 2.5 fold. The “splicing activity at 80° C.” value in series [1] (80° C.) is “maintains activity at 80° C., albeit with reduced yield of splice products”. In series [1] (80° C., 15 minute preincubation), this substance gave a splicing completion of about 50%. Besides, the “GuHCl concentration up to which the intein splices” value in series [1] (guanidine hydrochloride added) was “up to 4 M”. The “splicing activity in GuHCl” value in series [1] (up to 3M GuHCl) is given as “little decrease in activity”.
Turning to “Cfa^N fusion: model fusion protein His6-SUMO-AEY-Cfa^N; plasmid 20, SEQ ID NO: 381”, the “modification by PTS without refolding” value in the series on Cfa^C-CFN is “efficiently, modified by PTS”.
Regarding “Npu: DnaE split intein from Nostoc punctiforme PCC73102; SEQ ID NO: 5 and 6 [reference compound]”, in series [4], the “rate of protein trans-splicing (PTS), t1/2” value is on record as 50 s. The splicing in urea entry in series [1] (8M urea) is “inactive”; in series [1] (above 4M urea), “falls off dramatically”. Further, in series [1] (80° C.), the “splicing activity at 80° C.” value is “inactive”. Moreover, the “splicing activity in GuHCl” value in series [1] (≥3M GuHCl (3M in FIG. 2 legend)) is “no activity was observed; also recorded: inactive”.
